Reference: patent US20070043049A1, “Substituted heterocyclic diarylamine analogues” (Neurogen Corporation, priority 2003, published 2007)
pIC50: −log10 of the molar value.

Biological target: T1, human capsaicin receptor (Homo sapiens, UniProt Q8NER1)
T1 construct: pBK-CMV expression construct encoding the full length human capsaicin receptor; expressed in transfected cells
Test: Calcium mobilization assay, determination of antagonist activity (Example 6)
Format: cell-based
Settings: 50% decrease in fluorescence response of cells expressing human capsaicin receptor exposed to capsaicin
Description: A cDNA encoding full length human capsaicin receptor (SEQ ID NO:1, 2 or 3 of U.S. Pat. No. 6,482,611) was subcloned in the plasmid pBK-CMV (Stratagene, La Jolla, Calif.) for recombinant expression in mammalian cells.
Human embryonic kidney (HEK293) cells were transfected with the pBK-CMV expression construct encoding the full length human capsaicin receptor using standard methods. The transfected cells were selected for two weeks in media containing G418 (400 μg/ml) to obtain a pool of stably transfected cells. Independent clones were isolated from this pool by limiting dilution to obtain clonal stable cell lines for use in subsequent experiments.
Cells transfected with expression plasmids (as described in Example 4) and thereby expressing human capsaicin receptor are seeded and grown to 70-90% confluency in FALCON black-walled, clear-bottomed 96-well plates (#3904, BECTON-DICKINSON, Franklin Lakes, N.J.). The culture medium is emptied from the 96 well plates and FLUO-3 AM calcium sensitive dye (Molecular Probes, Eugene, Oreg.) is added to each well (dye solution: 1 mg FLUO-3 AM, 440 μL DMSO and 440 μl 20% pluronic acid in DMSO, diluted 1:250 in Krebs-Ringer HEPES (KRH) buffer (25 mM HEPES, 5 mM KCl, 0.96 mM NaH2PO4, 1 mM MgSO4, 2 mM CaCl2, 5 mM glucose, 1 mM probenecid, pH 7.4), 50 μl diluted solution per well). Plates are covered with aluminum foil and incubated at 37° C. for 1-2 hours in an environment containing 5% CO2. After the incubation, the dye is emptied from the plates, and the cells are washed once with KRH buffer, and resuspended in KRH buffer.
To measure the ability of a test compound to agonize or antagonize a calcium mobilization response in cells expressing capsaicin receptors to capsaicin or other vanilloid agonist, the EC50 of the agonist capsaicin is first determined. An additional 20 μl of KRH buffer and 1 μl DMSO is added to each well of cells, prepared as described above. 100 μl capsaicin in KRH buffer is automatically transferred by the FLIPR instrument to each well. Capsaicin-induced calcium mobilization is monitored using either FLUOROSKAN ASCENT (Labsystems; Franklin, Mass.) or FLIPR (fluorometric imaging plate reader system; Molecular Devices, Sunnyvale, Calif.) instruments. Data obtained between 30 and 60 seconds after agonist application are used to generate an 8-point concentration response curve, with final capsaicin concentrations of 1 nM to 3 μM. KALEIDAGRAPH software (Synergy Software, Reading, Pa.) is used to fit the data to the equation: y=a*(1/(1+(b/x)^c)) to determine the 50% excitatory concentration (EC50) for the response. In this equation, y is the maximum fluorescence signal, x is the concentration of the agonist or antagonist (in this case, capsaicin), a is the Emax, b corresponds to the EC50 value and c is the Hill coefficient. Determination of Agonist Activity
Test compounds are dissolved in DMSO, diluted in 20 μl KRH buffer so that the final concentration of test compounds in the assay well is between 1 μM and 5 μM, and added to cells prepared as described above. The 96 well plates containing prepared cells and test compounds are incubated in the dark, at room temperature for 0.5 to 6 hours. It is important that the incubation not continue beyond 6 hours. Just prior to determining the fluorescence response, 100 μl capsaicin in KRH buffer at twice the EC50 concentration determined as described above is automatically added by the FLIPR instrument to each well of the 96 well plate for a final sample volume of 200 μl and a final capsaicin concentration equal to the EC50. The final concentration of test compounds in the assay wells is between 1 μM and […]. […] The concentration of antagonist required to provide a 50% decrease, relative to the response observed in the presence of capsaicin and without antagonist, is the IC50 for the antagonist, and is preferably below 1 micromolar, 100 nanomolar, 10 nanomolar or 1 nanomolar.

T1 sequence (Q8NER1 whole entry): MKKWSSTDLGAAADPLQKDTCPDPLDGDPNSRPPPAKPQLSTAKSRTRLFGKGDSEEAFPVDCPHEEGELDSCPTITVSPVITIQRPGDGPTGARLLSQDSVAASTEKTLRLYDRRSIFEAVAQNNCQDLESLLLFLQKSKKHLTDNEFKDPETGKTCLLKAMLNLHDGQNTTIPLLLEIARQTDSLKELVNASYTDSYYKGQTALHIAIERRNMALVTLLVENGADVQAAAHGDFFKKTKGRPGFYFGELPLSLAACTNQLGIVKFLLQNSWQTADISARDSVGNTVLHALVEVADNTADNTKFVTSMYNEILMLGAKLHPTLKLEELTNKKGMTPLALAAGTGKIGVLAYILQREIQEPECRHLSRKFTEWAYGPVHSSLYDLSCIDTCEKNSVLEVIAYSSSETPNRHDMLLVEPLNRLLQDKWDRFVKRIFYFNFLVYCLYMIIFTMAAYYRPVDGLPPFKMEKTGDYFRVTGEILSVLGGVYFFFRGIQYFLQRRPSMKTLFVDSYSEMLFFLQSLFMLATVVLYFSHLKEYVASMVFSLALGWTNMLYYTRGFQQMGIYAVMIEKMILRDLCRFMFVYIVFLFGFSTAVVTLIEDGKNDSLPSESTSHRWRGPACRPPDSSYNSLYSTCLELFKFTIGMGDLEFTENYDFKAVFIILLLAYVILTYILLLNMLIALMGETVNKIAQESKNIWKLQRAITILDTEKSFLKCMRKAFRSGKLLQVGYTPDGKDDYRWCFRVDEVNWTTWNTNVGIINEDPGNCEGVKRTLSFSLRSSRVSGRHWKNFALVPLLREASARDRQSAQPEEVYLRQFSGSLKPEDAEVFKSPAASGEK

Structure (SMILES)	pIC50
CNc1nc(Nc2ccc(C(F)(F)F)cc2)nc(N2CCN(c3ncccc3Cl)CC2)n1 [Compound 46, 6-[4-(3-Chloro-pyridin-2-yl)-piperazin-1-yl]-N-methyl-N′-(4-trifluoromethyl-phenyl)-[1,3,5]triazine-2,4-diamine]	≥ 6.00
CC(C)N(C)c1nc(Nc2ccc(C(F)(F)F)cc2)nc(N2CCN(c3ncccc3C(F)(F)F)CC2)n1 [Compound 47, N-Isopropyl-N-methyl-N′-(4-trifluoromethyl-phenyl)-6-[4-(3-trifluoromethyl-pyridin-2-yl)-piperazin-1-yl]-[1,3,5]triazine-2,4-diamine]	≥ 6.00
CCCN(C)c1nc(Nc2ccc(C(F)(F)F)cc2)nc(N2CCN(c3ncccc3C(F)(F)F)CC2)n1 [Compound 48, N-Methyl-N-propyl-N′-(4-trifluoromethyl-phenyl)-6-[4-(3-trifluoromethyl-pyridin-2-yl)-piperazin-1-yl]-[1,3,5]triazine-2,4-diamine]	≥ 6.00
CC(C)N(C)c1nc(Nc2ccc(C(F)(F)F)cc2)nc(N2CCN(c3ncccc3Cl)CC2)n1 [Compound 49, 6-[4-(3-Chloro-pyridin-2-yl)-piperazin-1-yl]-N-isopropyl-N-methyl-N′-(4-trifluoromethyl-phenyl)-[1,3,5]triazine-2,4-diamine]	≥ 6.00
CCN(c1nc(Nc2ccc(C(F)(F)F)cc2)nc(N2CCN(c3ncccc3Cl)CC2)n1)C(C)C [Compound 50, 6-[4-(3-Chloro-pyridin-2-yl)-piperazin-1-yl]-N-ethyl-N-isopropyl-N′-(4-trifluoromethyl-phenyl)-[1,3,5]triazine-2,4-diamine]	≥ 6.00
CN(C)c1nc(Nc2ccccc2)nc(N2CCN(c3ncccc3C(F)(F)F)CC2)n1 [Compound 51, N,N-Dimethyl-N′-phenyl-6-[4-(3-trifluoromethyl-pyridin-2-yl)-piperazin-1-yl]-[1,3,5]triazine-2,4-diamine]	≥ 6.00
FC(F)(F)c1ccc(Nc2nc(N3CCCCC3)nc(N3CCN(c4ncccc4Cl)CC3)n2)cc1 [Compound 52, {4-[4-(3-Chloro-pyridin-2-yl)-piperazin-1-yl]-6-piperidin-1-yl-[1,3,5]triazin-2-yl}-(4-trifluoromethyl-phenyl)-amine]	≥ 6.00
C[C@H]1CN(c2ncccc2Cl)CCN1c1nc(Nc2ccc(C(F)(F)F)cc2)nc(N(C)C)n1 [Compound 53, 6-[4-(3-Chloro-pyridin-2-yl)-2-methyl-piperazin-1-yl]-N,N-dimethyl-N′-(4-trifluoromethyl-phenyl)-[1,3,5]triazine-2,4-diamine (S)]	≥ 6.00
CC(C)N(C)c1nc(Nc2ccccc2)nc(N2CCN(c3ncccc3Cl)CC2)n1 [Compound 54, 6-[4-(3-Chloro-pyridin-2-yl)-piperazin-1-yl]-N-isopropyl-N-methyl-N′-phenyl-[1,3,5]triazine-2,4-diamine]	≥ 6.00
CC(C)N(C)c1nc(Nc2ccccc2)nc(N2CCN(c3ncccc3C(F)(F)F)CC2)n1 [Compound 55, N-Isopropyl-N-methyl-N′-phenyl-6-[4-(3-trifluoromethyl-pyridin-2-yl)-piperazin-1-yl]-[1,3,5]triazine-2,4-diamine]	≥ 6.00
FC(F)(F)c1ccc(Nc2nc(N3CCN(c4ncccc4Cl)CC3)nc(N3CCN(c4ncccc4Cl)CC3)n2)cc1 [Compound 56, {4,6-Bis-[4-(3-chloro-pyridin-2-yl)-piperazin-1-yl]-[1,3,5]triazin-2-yl}-(4-trifluoromethyl-phenyl)-amine]	≥ 6.00
FC(F)(F)c1cccnc1N1CCN(c2nc(Nc3ccccc3)cc(N3CCCCC3)n2)CC1 [Compound 57, Phenyl-{6-piperidin-1-yl-2-[4-(3-trifluoromethyl-pyridin-2-yl)-piperazin-1-yl]-pyrimidin-4-yl}-amine]	≥ 6.00
Fc1cccc(Nc2nc(N3CCOCC3)nc(N3CCN(c4ncccc4C(F)(F)F)CC3)n2)c1 [Compound 58, (3-Fluoro-phenyl)-{4-morpholin-4-yl-6-[4-(3-trifluoromethyl-pyridin-2-yl)-piperazin-1-yl]-[1,3,5]triazin-2-yl}-amine]	≥ 6.00
Fc1ccc(Nc2nc(N3CCOCC3)nc(N3CCN(c4ncccc4C(F)(F)F)CC3)n2)cc1 [Compound 59, (4-Fluoro-phenyl)-{4-morpholin-4-yl-6-[4-(3-trifluoromethyl-pyridin-2-yl)-piperazin-1-yl]-[1,3,5]triazin-2-yl}-amine]	≥ 6.00
Fc1cccc(Nc2nc(N3CCOCC3)nc(N3CCN(c4ncccc4Cl)CC3)n2)c1 [Compound 60, {4-[4-(3-Chloro-pyridin-2-yl)-piperazin-1-yl]-6-morpholin-4-yl-[1,3,5]triazin-2-yl}-(3-fluoro-phenyl)-amine]	≥ 6.00
Fc1ccc(Nc2nc(N3CCOCC3)nc(N3CCN(c4ncccc4Cl)CC3)n2)cc1 [Compound 61, {4-[4-(3-Chloro-pyridin-2-yl)-piperazin-1-yl]-6-morpholin-4-yl-[1,3,5]triazin-2-yl}-(4-fluoro-phenyl)-amine]	≥ 6.00
Clc1ccc(Nc2nc(N3CCOCC3)nc(N3CCN(c4ncccc4Cl)CC3)n2)cc1 [Compound 62, (4-Chloro-phenyl)-{4-[4-(3-chloro-pyridin-2-yl)-piperazin-1-yl]-6-morpholin-4-yl-[1,3,5]triazin-2-yl}-amine]	≥ 6.00
FC(F)(F)c1cccnc1N1CCN(c2nc(Nc3ccc(Cl)cc3)nc(N3CCOCC3)n2)CC1 [Compound 63, (4-Chloro-phenyl)-{4-morpholin-4-yl-6-[4-(3-trifluoromethyl-pyridin-2-yl)-piperazin-1-yl]-[1,3,5]triazin-2-yl}-amine]	≥ 6.00
Cc1ccc(Nc2nc(N3CCOCC3)nc(N3CCN(c4ncccc4C(F)(F)F)CC3)n2)cc1 [Compound 64, {4-Morpholin-4-yl-6-[4-(3-trifluoromethyl-pyridin-2-yl)-piperazin-1-yl]-[1,3,5]triazin-2-yl}-p-tolyl-amine]	≥ 6.00
Cc1ccc(Nc2nc(N3CCOCC3)nc(N3CCN(c4ncccc4Cl)CC3)n2)cc1 [Compound 65, {4-[4-(3-Chloro-pyridin-2-yl)-piperazin-1-yl]-6-morpholin-4-yl-[1,3,5]triazin-2-yl}-p-tolyl-amine]	≥ 6.00
Clc1cccc(Nc2nc(N3CCOCC3)nc(N3CCN(c4ncccc4Cl)CC3)n2)c1 [Compound 66, (3-Chloro-phenyl)-{4-[4-(3-chloro-pyridin-2-yl)-piperazin-1-yl]-6-morpholin-4-yl-[1,3,5]triazin-2-yl}-amine]	≥ 6.00
FC(F)(F)c1cccnc1N1CCN(c2nc(Nc3cccc(Cl)c3)nc(N3CCOCC3)n2)CC1 [Compound 67, (3-Chloro-phenyl)-{4-morpholin-4-yl-6-[4-(3-trifluoromethyl-pyridin-2-yl)-piperazin-1-yl]-[1,3,5]triazin-2-yl}-amine]	≥ 6.00
Fc1ccc(Nc2nc(N3CCOCC3)nc(N3CCN(c4ncccc4Cl)CC3)n2)cc1F [Compound 68, {4-[4-(3-Chloro-pyridin-2-yl)-piperazin-1-yl]-6-morpholin-4-yl-[1,3,5]triazin-2-yl}-(3,4-difluoro-phenyl)-amine]	≥ 6.00
Fc1ccc(Nc2nc(N3CCOCC3)nc(N3CCN(c4ncccc4C(F)(F)F)CC3)n2)cc1F [Compound 69, (3,4-Difluoro-phenyl)-{4-morpholin-4-yl-6-[4-(3-trifluoromethyl-pyridin-2-yl)-piperazin-1-yl]-[1,3,5]triazin-2-yl}-amine]	≥ 6.00
